From patent US12203099B2, “Methods of expanding cholangiocytes” (Cambridge Enterprise Limited, priority 2017, dated 2025)

Tested on: ECOs
Experiment: Response to secretin and somatostatin (organoid diameter)
Assay type: cell-based, human
Conditions: ECOs exposed to secretin, compared to untreated controls
Procedure: Responses to secretin and somatostatin were assessed as described in Sapazoits F, et al. (Biotechnol. 2015 1-11).
We then further characterized ECOs by focusing on their function following long-term culture (20 passages). The biliary epithelium regulates the homeostasis of bile through the transport of ions, water and bile acids. The secretory capacity of ECOs was interrogated using Rhodamine-123, a fluorescent substrate for the cholangiocyte surface glycoprotein Multidrug Resistance protein-1 (MDR1) (FIGS. 10 and 11). […]. […] The response of ECOs to secretin and somatostatin was also assessed. Secretin promotes water secretion, distending the bile duct lumen, while somatostatin negates the effects of secretin.

secretin
organoid diameter: increased their diameter compared to untreated controls
